Like-named read-outs stand apart in the source and are kept apart here.
Key:
[1] = Acute toxicological testing in NOG mice; assay type: in vivo, mouse
Procedure: To check the pharmacological safety of the PI polyamide conjugates in vivo, acute toxicological testing of Chb-M′ in mice was first performed. NOD/Shi-scid,IL-2RγKO (NOG) mice were injected with Chb-M′ at various concentrations. Complete blood cell counts, blood biochemistry and body weight were measured (n=5).

BCR-ABL fusion protein = assay: Western blotting of BCR-ABL fusion protein in CML and PhALL cells; assay type: cell-based, human; details: 3 μM or 1 μM, 24 hours
Procedure: Cells were washed twice with ice cold phosphate-buffered saline (PBS) and harvested in protein lysis buffer [50 mM Tris (pH 7.4), 100 mM NaCl, 0.1 mM EDTA, 1 mM phenylmethylsulfonyl fluoride, 1 mM β-glycerophosphate, 2.5 mM sodium pyrophosphate, 1 mM Na3VO4, lx protease inhibitor (Roche) and PhosSTOP (Roche)]. Whole cell extracts were separated by SDS-polyacrylamide gel electrophoresis (SDS-PAGE) and electrotransferred onto polyvinylidene difluoride membranes. Membranes were probed with the following antibodies: anti-Ctip1 antibody (Abcam, ab19487), anti-TRIM24 antibody (Bethyl Laboratories, Inc), anti-RUNX1 antibody (A-2), anti-GAPDH (FL-335), anti-p21 (C-19), anti-Bax (N-20) antibodies (Santa Cruz Biotechnology, Inc.), anti-RUNX2, anti-RUNX3, anti-p53 antibodies (Cell Signaling Technology), anti-CBFβ antibody (FL-182, Santa Cruz Biotechnology, Inc.), anti-cleaved caspase-3 antibody (5A1E, Cell Signaling Technology), anti-PARP antibody (46D11, Cell Signaling Technology). For secondary antibodies, anti-rabbit IgG, or anti-mosue IgG HRP-linked antibodies (Cell Signaling Technology) were used. Blots were detected using Chemi-Lumi One Super (nacalai tesque, Inc.) and ChemiDoc™ XRS+ Imager (Bio-Rad Laboratories, Inc.), as recommended by the manufacturers. Protein levels were quantified with Image Lab Software (Bio-Rad Laboratories, Inc.).
To BV173 cells, MYL cells, SU-Ph2 cells, and SU/SR cells, 3 μM or 1 μM of Chb-M′ were administered. After 24 hours, proteins were extracted, and then subjected to the Western blotting method (see the above-described “Immunoblotting”) using an ABL antibody to confirm expressions of BCR-ABL fusion protein at protein levels. As a control, DMSO was administered.

MYL cells = assay: PI-AnnexinV apoptosis staining, MYL cells; assay type: cell-based, human; details: 1.5 μM or 3 μM, 48 hours, dependent on concentration
Procedure: In addition, 1.5 μM or 3 μM of Chb-M′ was administered to MYL cells. After 48 hours, the percentage of apoptosis was analyzed by PI-AnnexinV apoptosis staining. As a result, early apoptosis rates were increased dependent on the concentration of Chb-M′ (FIG. 26-4).

CD62E (E-selectin) = assay: FACS of cell surface CD62E (E-selectin) in HUVEC; assay type: cell-based, human; details: 1 μM, 24 hours
Procedure: Using HUVEC, changes in expression levels of E-selectin by the RUNX inhibitor and RUNX knockdown were analyzed by FACS (fluorescence-activated cell sorter). To HUVEC, 1 μM of Chb-M′ was administered. After 24 hours, different antibodies were used for immunostaining and changes in the cell surface expression of CD62E (E-selectin) were measured. As a control, DMSO was administered. In addition, HUVEC in which RUNX1 gene expression was knockdown by sh_RUNX1 #2 were immunostained using different antibodies to measure changes in the cell surface expression of CD62E (E-selectin). As a control, the cells were knockdown by a siRNA targeting luciferase (sh_Luc.). As the antibodies, an anti-human CD62E (E-selectin) antibody (manufactured by eBioscience) and an isotype antibody (mouse IgG1) of anti-human CD62E (E-selectin) antibody (manufactured by eBioscience) were used.

[2] = test system: Her2, p-Her2, SOS1, p-ERK, ERK, p-AKT, AKT; assay: Western blotting of Her2 signalling in MKN45 gastric cancer cells; assay type: cell-based, human; details: 48 hours
RERF-LC-MS = assay: Cell viability, lung adenocarcinoma RERF-LC-MS; assay type: cell-based, human; details: RERF-LC-MS (EGFR wild-type p53-mutated), 48 hours
PC-3 cells = assay: PI-AnnexinV apoptosis staining, PC-3 cells; assay type: cell-based, human; details: PC-3, 3 μM, 48 hours and 72 hours
Procedure: To PC-3 cells, 3 μM Chb-M′ was administered. After 48 hours and 72 hours, the percentage of apoptosis was analyzed by PI-AnnexinV apoptosis staining. As a control, DMSO was administered. As a result, the apoptosis rate was increased depending on the […] of Chb-M′ (FIG. 46).

HMC-1.2 cell line = assay: Cell proliferation of HMC-1.2 mast cells; assay type: cell-based, human
p53 mutated cells = assay: Concomitant use with p53 inducer MIRA-1 in p53 mutated cells; assay type: cell-based, human; details: compared with the PRIMA-1 experiments (synergistic inhibition)
Procedure: We examined the effect of concomitant use of the conjugates and a p53 inducer. […] KG1a and HL60 cells are null for p53 (p53null cell lines). MV4-11NR, Kasumi-1 and THP-1 cells harbor mutated p53 (p53mut(+) cell lines).
Further, the same experiments were performed using a p53 inducer MIRA-1 and the same results were obtained. Although the PI polyamide conjugates of the present invention may greatly reduce their potency in p53 mutated cells (cancer cells harboring mutated p53 or no p53), concomitant use with a p53 inducer enables suppression of such p53 mutated cells.

LNCaP cells = details: read-out: IC50 (μM) in LNCaP cells; LNCaP (androgen-dependent), 48 hours
SU/SR cells = details: read-out: IC50 value; SU/SR (imatinib-resistant), 48 hours

With CN(C)CCCNC(=O)c1cc(NC(=O)c2cc(NC(=O)c3cc(NC(=O)c4cc(NC(=O)CCCNC(=O)c5nc(NC(=O)c6nc(NC(=O)c7cc(NC(=O)c8nc(NC(=O)CCNC(=O)CCCc9ccc(N(CCCl)CCCl)cc9)cn8C)cn7C)cn6C)cn5C)cn4C)cn3C)cn2C)cn1C [Chb-M′] the “10 mg/kg dose relative to the amount necessary to gain medicinal effect” value [1] was “more than thirty times higher”, the Tolerability in vivo [1] was “highly tolerable” and the Platelets counts ([1]; 10 mg/kg body weight injection) was “slight decrease”. For the same molecule, the p210BCR-ABL fusion protein (BCR-ABL fusion protein; BV173 cells) was “lost”, the p210BCR-ABL fusion protein (BCR-ABL fusion protein; MYL cells) was “lost” and the p190BCR-ABL fusion protein (BCR-ABL fusion protein; SU-Ph2 cells) was “lost”. The p190BCR-ABL fusion protein (BCR-ABL fusion protein; SU/SR cells) was “lost”, the Early apoptosis rates (MYL cells) was “increased” and the “Cell surface expression of E-selectin (FACS)” value (CD62E (E-selectin)) was “decrease”. For the same molecule, the “Expression of SOS1 (protein)” value ([2]; MKN45, 0.1 μM, 1 μM, or 10 μM) was “suppressed”, the “Phosphorylation of Her2” value ([2]; MKN45, 0.1 μM, 1 μM, or 10 μM) was “suppressed” and the “Expression of Her2 protein” value ([2]; MKN45, 1 μM) was “suppressed”. For the same molecule, the “Phosphorylated forms of ERK protein and AKT protein” value ([2]; MKN45, 1 μM) was “suppressed”, the “Total amounts of ERK protein and AKT protein” value ([2]; MKN45, 1 μM) was “not changed” and the “IC50 compared with the EGFR inhibitor (gefitinib)” value (RERF-LC-MS) was “lower IC50 values”. For the same molecule, the Apoptosis rate (PC-3 cells) was “increased”, the “Cell proliferation of mast cells having mutated c-kit” value (HMC-1.2 cell line) was “suppression” and the “Effect of concomitant use with p53 inducer MIRA-1 on cell proliferation” value (p53 mutated cells) was “same results”. For the same molecule, the “CI (Fa = 0.5)” value (MV4-11NR; p53mut(+), concomitant use of Chb-M′ and PRIMA-1, Chou-Talalay, CI<1 synergism) was 0.380, the IC50 (MV4-11NR; read-out: IC50 (μM) of Chb-M′ in concomitant use with PRIMA-1 (5 μM), p53mut(+), 48 hours, with 5 μM PRIMA-1) was 0.00103 µM and the IC50 (MV4-11NR; read-out: IC50 (μM) of Chb-M′ single agent administration, p53mut(+), 48 hours) was greater than 100 µM. The IC50 (LNCaP cells) was 0.68 µM, the IC50 (NB4 (p53MT); culture time 48 hours) was 357 nM and the IC50 (NB4 (p53MT); culture time 72 hours) was 44.6 nM. The IC50 (SU/SR cells) was 44 nM.

From patent publication US11235001B2, “RUNX inhibitor” (KYOTO UNIVERSITY, priority 2016, dated 2022)
